Columns and labels:
CD8+ T cells = assay: Purified CD8+ T cell activation and expansion with recombinant activin-A; assay type: cell-based, human; conditions: anti-CD3/CD28 beads, activin-A 0, 10, 100 ng/ml, 24 or 72 hours
Experimental: To test this, CD8^+ T cells were purified and labeled with carboxy fluorescein succinimidy/ester (“CFSE” hereafter). These cells were cultured in wells, at 1×10^5 cells/well, in standard medium supplemented with 20 U/ml of IL-2, either with or without anti-CD3/CD28 bead stimulation, in the presence of increasing doses of commercially available, recombinant activin-A (0, 10, and 100 ng/ml), for 24 or 72 hours. Cell division was assessed over time by flow cytometry and IFN-γ production via a standard ELISA.

C57/B6 mice = assay type: in vivo, mouse; conditions: 100 ng activin-A subcutaneously, live influenza virus intraperitoneally, day 7
Human NK cells [1] = assay: Western blot for Smad 2/3 in NK cells; assay type: cell-based; conditions: ex vivo purified NK cells, 50 ng/ml activin-A, 4 hours
Experimental: Human NK cells were highly purified, following standard methods; and were either lysed immediately or cultured for 20 hours in medium that had been supplemented with 20 U/ml IL-2, either with or without 10 ng/ml of IL-12, or with or without the toll like receptor 3 ligand Poly I:C, 5×10^5, lysed immediately, and then assayed for ALK-4 (an activin type I receptor), and RITA (an activin type II receptor), via qRT-PCR. In parallel, 1×10^5 highly purified NK cells were cultured in medium supplemented with 20 U/ml IL-2, with or without 50 ng/ml of recombinant human activin-A. Cells were harvested after 4 hours, and Western blotting was carried out for Smad 2/3 and β-actin.

Human NK cells [2] = assay: IFN-γ ELISA of purified NK cells; assay type: cell-based
Experimental: A total of 1×10^5 highly purified human NK cells were cultured for 20 hours in medium supplemented with 20 U/ml IL-2, and 10 ng/ml IL-12. Either human recombinant activin-A, or TGF-β was added to the cultures, at concentrations of 10, 50 and 100 ng/ml. Supernatants were then tested for IFN-γ via ELISA, using standard methods. In these experiments 1×10^5 highly purified human NK cells were cultured as above, but were cultured with Poly I:C (10 μg/ml), or LPS (100 ng/ml), with or without 10, 50, or 100 ng/ml of recombinant human activin-A. In some cases, the known compound “SB431542,” which blocks activin-A binding to receptors was added. IFN-γ was then measured via ELISA, or by intracellular cytokine staining after 16 hours of culture, via addition of 1 μg/ml BFA, to prevent cytokine release. The impact of activin-A on production of IFN-γ by NK cells, in the absence of dendritic cells, was ascertained. Purified NK cells (1×10^5) were cultured in 96 well-plants, in media that was supplemented with 20 U/ml IL-2 and 10 ng/ml, IL-12, in the absence of, or with increasing concentrations of either activin-A, or TGF-β. Culture supernatants were assayed for IFN-γ after 24 hours of culture, using ELISAs, as described supra. As in the prior experiments, 1×10^5 purified NK cells were cultured in media supplemented with IL-2 only, or IL-2 plus IL-12, either with or without one of poly I:C or LPS, in the presence or absence of increased levels of activin-A.

Human NK cells [3] = assay: Intracellular cytokine staining of IFN-γ in NK cells; assay type: cell-based; conditions: 16 hours, BFA 1 μg/ml
Experimental: In these experiments 1×10^5 highly purified human NK cells were cultured as above, but were cultured with Poly I:C (10 μg/ml), or LPS (100 ng/ml), with or without 10, 50, or 100 ng/ml of recombinant human activin-A. In some cases, the known compound “SB431542,” which blocks activin-A binding to receptors was added. IFN-γ was then measured via ELISA, or by intracellular cytokine staining after 16 hours of culture, via addition of 1 μg/ml BFA, to prevent cytokine release.
In additional follow up experiments, the NK cells were stimulated with IL-2 or the combination of IL-2 and IL-12, plus poly I:C or LPS, for 16 hours, in the presence of 1 μg/ml of BFA, before a standard ICS assay was carried out via flow cytometry.

Human NK cells [4] = assay: CFSE division assay of NK cells; assay type: cell-based; conditions: 5 days, activin-A 100 ng/ml
Experimental: In these experiments, 1×10^5 highly purified human NK cells were labeled with CFSE, and cultured for 5 days in medium supplemented with 20 U/ml IL-2 and 10 ng/ml IL-12, either with or without Poly I:C or LPS, either with or without 100 ng/ml of human recombinant activin-A. Cellular division was assessed by determining loss of CFSE intensity using known, flow cytometric methods.

NK cells = assay: Multiplex cytokine and chemokine array of NK cell supernatants; assay type: cell-based, human; conditions: activated NK cells
Experimental: The analysis reported supra was extended to an analysis of the supernatants produced during the various cell culture experiments. A multiplex array system for chemokines and cytokines were used, as was a standard ELISA for measuring IFN-γ. Bead arrays were used to quantify each of IFN-γ, IL-1 IL-6, IL-8, IL-10, TNF-α, GM-CSF, IP-10, MCP-1, MIP-1α, and 1β. Levels of production were measured using standard methodologies.

[5] = test system: NK cells (target cells K562 or Jurkat cells); assay: NK cell killing of calcein-labeled target cells; assay type: cell-based, human; conditions: 100 ng/ml, 3 days culture, K562 or Jurkat targets, 4 hours
Experimental: 1×10^6 purified NK cells were cultured in 24 well-plates, either with a high dose of IL-2 (100 U/ml), or a combination of 20 U/ml of IL-2 and IL-12. The culturing took place in the absence of either of activin-A or TGF-β or 100 ng/ml of one of them. The culture continued for 3 days.
After the 3 days of culture, the NK cells were combined with target cells K562 or Jurkat cells, at effector (NK cells): target (K562 or Jurkat cells) ratios of 5:1, 2:1, and 0.1:1. The target cells had been labeled with calcein previously. The total number of labeled target cells was 2×10^4, and the mixture was incubated for 4 hours. The efficiency of killing was determined by measuring calcein dye release via spectrometry.

With activin-A the “CD8+ T cell ability to generate IFN-γ” value (CD8+ T cells) was “did not regulate”, the “CD8+ T cell division” value (CD8+ T cells) was “did not regulate” and the “peptide specific CD8+ IFN-γ+ T cell response” value (C57/B6 mice) was “suppressed”. The “intracellular Smad 2/3 levels” value (Human NK cells [1]) was “enhanced intracellular Smad 2/3 levels”, the IFN-γ production (Human NK cells [2]; NK cells stimulated with Poly I:C, activin-A 10, 50, 100 ng/ml) was “suppressed IFN-γ production” and the IFN-γ production (Human NK cells [2]; NK cells, IL-2 and IL-12, 20 hours, 10, 50, 100 ng/ml) was “as effective as TGF-β in suppressing the production of IFN-γ”. For the same substance, the IFN-γ production (Human NK cells [2]; NK cells, IL-2 and IL-12, 24 hours, increasing concentrations) was “as potent as TGF-β in inhibiting IFN-γ production”, the IFN-γ production (Human NK cells [2]; NK cells, IL-2 plus IL-12 with poly I:C or LPS, increased levels of activin-A) was “suppressed by addition of activin-A, in a concentration dependent manner” and the “number of IFN-γ producing cells” value (Human NK cells [3]) was “not due to a decrease in the number of IFN-γ producing cells”. For the same substance, the “number of IFN-γ producing cells” value (Human NK cells [3]; listed as Activin-A) was “did not effect these populations”, the “division and proliferation of NK cells” value (Human NK cells [4]; IL-2, IL-12, LPS) was “very strongly suppressed” and the “division and proliferation of NK cells” value (Human NK cells [4]; IL-2, IL-12, Poly I:C) was “very strongly suppressed”. For the same substance, the GM-CSF production (NK cells) was “suppressed”, the “IFN-γ production (bead array)” value (NK cells) was “suppressive effect” and the IL-1β production (NK cells) was “suppressed”. For the same substance, the IL-6 production (NK cells) was “suppressed”, the IL-8 production (NK cells) was “suppressing” and the IL-10 production (NK cells) was “increased the low amounts of IL-10 that had been produced, significantly”. For the same substance, the IP-10 production (NK cells) was “suppressing”, the MIP-1α production (NK cells) was “suppressing” and the MIP-1β production (NK cells) was “suppressing”. The TNF-α production (NK cells) was “suppressed” and the “killing ability of NK cells” value [5] was “had no impact whatsoever”.

Source: patent US20100279409A1, “METHOD FOR MODIFYING CELLUAR IMMUNE RESONSE BY MODULATING ACTIVIN ACTIVITY” (priority 2007, published 2010)
